Here are results for nine molecules from US11884661B2, “3-substituted propionic acids as αV integrin inhibitors” (BRISTOL-MYERS SQUIBB COMPANY, priority 2016, dated 2024).

One assay deals with human αVβ3 (Homo sapiens, UniProt P05106+P06756). In words: human αVβ3 HTRF binding assay. As for the experimental part:
(§1) All binding assays used the HTRF (homogeneous time resolved fluorescence) technology from Cisbio International, therefore all assays are described as HTRF binding assays. The assay results for the Examples are listed above together with the characterization data. The HTRF binding assays are established for the following integrins: human αVβ6, human αVβ1, human αVβ3, human αVβ5, and human αVβ8. All assays used the following assay buffer: 20 mM Tris, pH 7.4, 1 mM MgCl2, 1 mM MnCl2, 0.01% Tween 20, and 0.01% BSA. Alternatively, a SPA-based assay was used for evaluation of receptor binding.
(§2) The following describes the components and a representative procedure for the human αVβ6 HTRF binding assay: Recombinant human αVβ6 Integrin (R & D systems, 3817-AV) was biotinylated. Biotinylated human αVβ6 Integrin was added to assay vessel at a final concentration of 1.25 nM. FITC-conjugated fibronectin (Cytoskeleton, FNR02) was then added at the final concentration of 5 nM. The mixture was centrifuged at 600 rpm for three minutes using Thermo Fisher Heraeus Multifuge X3 centrifuge and then incubated at RT for an hour. Streptavidin Terbium (Cisbio international 610STLB) was then added at the final concentration of 0.625 nM. The resulting mixture was centrifuged at 600 rpm for three minutes using Thermo Fisher Heraeus Multifuge X3 centrifuge and then incubated at room temperature overnight in dark before reading HTRF signals.
In general terms: Time-resolved FRET reads energy transfer from a long-lived donor to a nearby acceptor.

A further assay concerns the target human αVβ8 (Homo sapiens, UniProt P06756+P26012). In words: human αVβ8 HTRF binding assay. As for the experimental part:
(§3) All binding assays used the HTRF (homogeneous time resolved fluorescence) technology from Cisbio International, therefore all assays are described as HTRF binding assays. The assay results for the Examples are listed above together with the characterization data. The HTRF binding assays are established for the following integrins: human αVβ6, human αVβ1, human αVβ3, human αVβ5, and human αVβ8. All assays used the following assay buffer: 20 mM Tris, pH 7.4, 1 mM MgCl2, 1 mM MnCl2, 0.01% Tween 20, and 0.01% BSA. Alternatively, a SPA-based assay was used for evaluation of receptor binding. […]

In the next assay the target is human αVβ5 (Homo sapiens, UniProt P06756+P18084). The assay can be described thus: human αVβ5 HTRF binding assay. As for the experimental part:
as §3

A further assay has as its target T1, human αVβ6 (Homo sapiens, UniProt P06756+P18564).
T1 construct: purchased R & D systems 3817-AV
In words: human αVβ6 HTRF binding assay. As to conditions: recombinant human αVβ6 integrin, FITC-conjugated fibronectin. In a few lines:
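Biotinylated recombinant αVβ6 (1.25 nM final) incubated with FITC-fibronectin (5 nM) 1 h at RT, then streptavidin-terbium (0.625 nM) added and incubated overnight at RT in the dark before HTRF read. Buffer: 20 mM Tris pH 7.4, 1 mM MgCl2, 1 mM MnCl2, 0.01% Tween 20, 0.01% BSA.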

For another assay, the target named is human αVβ1 (Homo sapiens, UniProt P05556+P06756). The assay can be described thus: human αVβ1 HTRF binding assay. As for the experimental part: as §1, §2
Sequence of human αVβ1 (P06756 31-992 limits assumed): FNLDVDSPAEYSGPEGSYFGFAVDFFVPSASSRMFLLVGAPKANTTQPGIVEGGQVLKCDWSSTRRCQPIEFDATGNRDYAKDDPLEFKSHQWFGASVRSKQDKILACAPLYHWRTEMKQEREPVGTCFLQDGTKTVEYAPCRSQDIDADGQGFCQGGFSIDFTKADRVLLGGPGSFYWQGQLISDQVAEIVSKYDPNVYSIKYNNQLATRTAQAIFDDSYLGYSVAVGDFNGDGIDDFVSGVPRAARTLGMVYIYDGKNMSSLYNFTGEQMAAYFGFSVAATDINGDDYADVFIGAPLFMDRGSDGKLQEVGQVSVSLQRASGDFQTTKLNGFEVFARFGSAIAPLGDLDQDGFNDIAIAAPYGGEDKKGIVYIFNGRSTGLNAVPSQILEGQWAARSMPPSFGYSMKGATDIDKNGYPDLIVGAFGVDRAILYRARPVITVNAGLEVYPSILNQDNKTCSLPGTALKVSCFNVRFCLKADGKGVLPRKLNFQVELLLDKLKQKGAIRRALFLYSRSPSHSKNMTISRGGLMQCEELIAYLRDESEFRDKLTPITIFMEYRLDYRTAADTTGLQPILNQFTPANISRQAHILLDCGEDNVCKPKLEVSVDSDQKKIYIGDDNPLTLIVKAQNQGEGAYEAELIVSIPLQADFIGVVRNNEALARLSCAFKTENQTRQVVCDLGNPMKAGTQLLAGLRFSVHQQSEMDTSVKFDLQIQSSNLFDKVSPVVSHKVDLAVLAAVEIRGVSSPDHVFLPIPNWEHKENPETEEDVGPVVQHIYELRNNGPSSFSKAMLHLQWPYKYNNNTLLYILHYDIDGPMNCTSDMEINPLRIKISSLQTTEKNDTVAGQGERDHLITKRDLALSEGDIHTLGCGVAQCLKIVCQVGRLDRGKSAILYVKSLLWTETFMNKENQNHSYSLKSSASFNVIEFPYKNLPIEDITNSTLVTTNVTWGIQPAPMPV
Sequence of human αVβ1 (P05556 21-728 limits assumed): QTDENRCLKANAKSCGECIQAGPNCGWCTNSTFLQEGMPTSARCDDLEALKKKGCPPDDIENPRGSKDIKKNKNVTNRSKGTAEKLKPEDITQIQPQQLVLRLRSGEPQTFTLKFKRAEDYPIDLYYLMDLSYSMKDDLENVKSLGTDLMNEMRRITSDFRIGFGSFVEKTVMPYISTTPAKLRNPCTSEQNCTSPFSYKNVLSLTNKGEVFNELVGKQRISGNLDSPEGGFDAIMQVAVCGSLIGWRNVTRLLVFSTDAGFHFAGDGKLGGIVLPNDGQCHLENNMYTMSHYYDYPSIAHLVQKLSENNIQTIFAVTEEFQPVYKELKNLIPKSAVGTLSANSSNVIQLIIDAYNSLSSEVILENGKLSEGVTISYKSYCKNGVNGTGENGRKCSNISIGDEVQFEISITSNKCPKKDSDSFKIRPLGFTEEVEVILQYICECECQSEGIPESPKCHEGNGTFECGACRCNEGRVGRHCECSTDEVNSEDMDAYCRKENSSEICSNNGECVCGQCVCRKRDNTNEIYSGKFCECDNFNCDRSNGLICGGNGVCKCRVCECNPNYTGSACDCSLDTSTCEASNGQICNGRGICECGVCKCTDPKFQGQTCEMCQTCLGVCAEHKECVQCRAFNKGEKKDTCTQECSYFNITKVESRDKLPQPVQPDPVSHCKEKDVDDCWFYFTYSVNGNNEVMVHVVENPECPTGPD

As a reminder, the IC50 is the concentration needed to halve the response being measured.

Sequence of human αVβ3 (P06756 31-992 limits assumed): as the sequence (P06756 31-992 limits assumed) above
Sequence of human αVβ3 (P05106 27-718 limits assumed): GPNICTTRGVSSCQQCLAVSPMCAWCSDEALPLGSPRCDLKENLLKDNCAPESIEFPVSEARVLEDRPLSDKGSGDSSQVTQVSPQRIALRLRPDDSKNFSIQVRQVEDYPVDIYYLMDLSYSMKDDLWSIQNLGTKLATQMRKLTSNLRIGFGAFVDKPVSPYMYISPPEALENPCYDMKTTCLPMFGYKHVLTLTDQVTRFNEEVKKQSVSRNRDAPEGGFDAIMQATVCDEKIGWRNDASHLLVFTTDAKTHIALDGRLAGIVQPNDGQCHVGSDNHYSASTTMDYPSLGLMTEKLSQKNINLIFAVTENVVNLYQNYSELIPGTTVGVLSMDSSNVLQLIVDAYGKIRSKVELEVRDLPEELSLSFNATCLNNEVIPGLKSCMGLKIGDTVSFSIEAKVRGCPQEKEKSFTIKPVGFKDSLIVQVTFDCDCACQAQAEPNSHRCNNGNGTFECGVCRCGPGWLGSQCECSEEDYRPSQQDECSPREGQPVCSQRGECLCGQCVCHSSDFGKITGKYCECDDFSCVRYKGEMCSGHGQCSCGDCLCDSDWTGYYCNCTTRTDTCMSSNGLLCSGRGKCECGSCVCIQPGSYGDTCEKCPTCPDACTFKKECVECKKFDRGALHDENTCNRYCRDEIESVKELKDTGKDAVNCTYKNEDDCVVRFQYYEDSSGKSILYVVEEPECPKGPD
Sequence of human αVβ5 (P06756 31-992 limits assumed): as the sequence (P06756 31-992 limits assumed) above
Sequence of human αVβ5 (P18084 24-719 limits assumed): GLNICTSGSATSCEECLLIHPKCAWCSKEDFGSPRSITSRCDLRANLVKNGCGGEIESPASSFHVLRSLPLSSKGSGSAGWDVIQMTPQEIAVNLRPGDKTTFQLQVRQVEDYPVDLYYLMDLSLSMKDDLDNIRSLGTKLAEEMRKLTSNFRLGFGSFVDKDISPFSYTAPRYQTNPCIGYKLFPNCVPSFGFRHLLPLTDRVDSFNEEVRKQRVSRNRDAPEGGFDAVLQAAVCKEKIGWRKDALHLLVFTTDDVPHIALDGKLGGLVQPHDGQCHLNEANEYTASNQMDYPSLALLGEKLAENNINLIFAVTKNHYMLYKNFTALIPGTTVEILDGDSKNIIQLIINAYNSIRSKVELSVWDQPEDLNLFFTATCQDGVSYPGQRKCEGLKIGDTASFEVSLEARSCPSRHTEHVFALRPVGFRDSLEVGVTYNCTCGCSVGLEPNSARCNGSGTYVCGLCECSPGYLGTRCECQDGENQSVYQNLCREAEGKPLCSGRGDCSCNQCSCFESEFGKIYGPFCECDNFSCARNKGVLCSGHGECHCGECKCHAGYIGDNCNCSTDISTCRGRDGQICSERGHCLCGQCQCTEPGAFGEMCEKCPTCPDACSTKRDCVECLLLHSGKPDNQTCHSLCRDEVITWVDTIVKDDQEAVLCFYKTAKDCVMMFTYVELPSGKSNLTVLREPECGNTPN
Sequence of human αVβ8 (P06756 31-992 limits assumed): as the sequence (P06756 31-992 limits assumed) above
Sequence of human αVβ8 (P26012 43-684 limits assumed): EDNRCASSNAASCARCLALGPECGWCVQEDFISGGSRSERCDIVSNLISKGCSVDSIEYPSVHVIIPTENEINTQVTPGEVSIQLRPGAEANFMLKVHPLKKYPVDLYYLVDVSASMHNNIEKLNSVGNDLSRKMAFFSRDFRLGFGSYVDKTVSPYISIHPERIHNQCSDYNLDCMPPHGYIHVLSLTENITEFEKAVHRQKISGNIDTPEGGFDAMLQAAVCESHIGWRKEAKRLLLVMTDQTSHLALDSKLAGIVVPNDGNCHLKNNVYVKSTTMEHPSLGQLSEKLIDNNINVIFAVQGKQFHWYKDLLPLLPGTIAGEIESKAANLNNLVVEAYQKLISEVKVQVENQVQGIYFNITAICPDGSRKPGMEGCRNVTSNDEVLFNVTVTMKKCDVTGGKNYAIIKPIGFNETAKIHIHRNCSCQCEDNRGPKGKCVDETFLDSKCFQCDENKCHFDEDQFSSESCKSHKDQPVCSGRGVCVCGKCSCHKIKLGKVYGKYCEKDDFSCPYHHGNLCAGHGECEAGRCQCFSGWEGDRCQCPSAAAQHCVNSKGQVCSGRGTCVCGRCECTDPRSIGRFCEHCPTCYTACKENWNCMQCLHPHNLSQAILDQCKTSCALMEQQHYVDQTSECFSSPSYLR
T1 sequence (P06756 31-992 limits assumed): as the sequence (P06756 31-992 limits assumed) above
T1 sequence (P18564 22-707 limits assumed): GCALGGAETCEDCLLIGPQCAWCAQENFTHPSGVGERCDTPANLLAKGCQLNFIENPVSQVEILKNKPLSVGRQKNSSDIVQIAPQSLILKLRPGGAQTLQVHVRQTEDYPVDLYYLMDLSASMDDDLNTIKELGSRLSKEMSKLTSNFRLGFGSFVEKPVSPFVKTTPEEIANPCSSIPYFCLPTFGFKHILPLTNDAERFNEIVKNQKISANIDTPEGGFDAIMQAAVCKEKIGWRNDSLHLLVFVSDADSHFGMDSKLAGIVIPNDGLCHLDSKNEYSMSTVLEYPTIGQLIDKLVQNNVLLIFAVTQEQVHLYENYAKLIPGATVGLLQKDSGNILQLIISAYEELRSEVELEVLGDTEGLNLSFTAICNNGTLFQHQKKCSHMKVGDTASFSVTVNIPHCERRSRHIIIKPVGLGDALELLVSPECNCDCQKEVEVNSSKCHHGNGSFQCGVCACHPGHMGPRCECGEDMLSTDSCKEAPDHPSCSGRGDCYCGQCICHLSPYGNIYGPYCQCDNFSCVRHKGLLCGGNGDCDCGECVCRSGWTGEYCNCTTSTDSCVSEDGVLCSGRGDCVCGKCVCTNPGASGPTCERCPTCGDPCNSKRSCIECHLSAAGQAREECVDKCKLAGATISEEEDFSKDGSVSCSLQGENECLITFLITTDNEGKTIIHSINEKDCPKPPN

`COc1ccc(C(CC(=O)O)c2nc(CCCCc3ccc4c(n3)NCCC4)cs2)cc1F` (single isomer, unassigned) [Example 37, 3-(3-Fluoro-4-methoxyphenyl)-3-(4-(4-(5,6,7,8-tetrahydro-1,8-naphthyridin-2-yl)butyl)thiazol-2-yl)propanoic acid]: the IC50 was 1.7 nM at human αVβ3; 870 nM at human αVβ8; 1.1 nM on human αVβ5; 2 nM on human αVβ6; 160 nM on human αVβ1.

Consider `COc1ccc(C(CC(=O)O)c2nc(CCCCc3ccc4c(n3)NCCC4)cs2)cn1` (single isomer, unassigned) [Example 14, 3-(6-Methoxypyridin-3-yl)-3-(4-(4-(5,6,7,8-tetrahydro-1,8-naphthyridin-2-yl)butyl)thiazol-2-yl)propanoic acid], for which the IC50 on human αVβ3 stood at 1.9 nM; on human αVβ8 it was 510 nM; on human αVβ5 it was 11 nM; on human αVβ6, 2.1 nM; on human αVβ1, 241 nM.

For `COc1ccc(C(CC(=O)O)c2nc(CCCc3ccc4c(n3)NCCC4)cs2)cc1F` (single isomer, unassigned) [Example 38, 3-(3-Fluoro-4-methoxyphenyl)-3-(4-(3-(5,6,7,8-tetrahydro-1,8-naphthyridin-2-yl)propyl)thiazol-2-yl)propanoic acid], the IC50 at human αVβ3 stood at 2.3 nM; on human αVβ8, 860 nM; at human αVβ6 it was 2.1 nM; at human αVβ1, 66 nM.

Consider `Cc1cc(C)n(-c2cccc(C(CC(=O)O)n3ccc(CCCc4ccc5c(n4)NCCC5)n3)c2)n1` (racemic) [Example 31, (±)-3-(3-(3,5-Dimethyl-1H-pyrazol-1-yl)phenyl)-3-(3-(3-(5,6,7,8-tetrahydro-1,8-naphthyridin-2-yl)propyl)-1H-pyrazol-1-yl)propanoic acid], for which the IC50 at human αVβ3 is 7.5 nM; at human αVβ8 it was 3300 nM; on human αVβ6 it was 5.2 nM; at human αVβ1 it was 63 nM.

`COc1ccc([C@H](CC(=O)O)N2CCC(CCCc3ccc4c(n3)NCCC4)C2)cn1` (stereo partly drawn) [Example 21, (3S)-3-(6-Methoxypyridin-3-yl)-3-(3-(3-(5,6,7,8-tetrahydro-1,8-naphthyridin-2-yl)propyl)pyrrolidin-1-yl)propanoic acid]: the IC50 at human αVβ3 was found to be 4.4 nM; at human αVβ8, 180 nM; at human αVβ5, 10 nM; at human αVβ6, 1.4 nM; at human αVβ1, 6500 nM.

As to `COc1ccc(C(CC(=O)O)n2ccc(CCCc3ccc4c(n3)NCCC4)n2)cn1` (single isomer, unassigned) [Example 3, 3-(6-Methoxypyridin-3-yl)-3-(3-(3-(5,6,7,8-tetrahydro-1,8-naphthyridin-2-yl)propyl)-1H-pyrazol-1-yl)propanoic acid], the IC50 stood at 3.2 nM at human αVβ3; 1120 nM at human αVβ8; 11 nM at human αVβ5; 3.2 nM on human αVβ6; 65 nM on human αVβ1.

With `CCOc1ncc(C(CC(=O)O)n2ccc(CCCc3ccc4c(n3)NCCC4)n2)cn1` (racemic) [Example 27, (±)-3-(2-Ethoxypyrimidin-5-yl)-3-(3-(3-(5,6,7,8-tetrahydro-1,8-naphthyridin-2-yl)propyl)-1H-pyrazol-1-yl)propanoic acid], the IC50 at human αVβ3 was 2.3 nM; on human αVβ8 it was 1800 nM; on human αVβ5, 0.76 nM; at human αVβ6, 9.4 nM; on human αVβ1, 144 nM.

On to `O=C(O)CC(c1cnc2ccccc2c1)n1ccc(CCCc2ccc3c(n2)NCCC3)n1` (racemic) [Example 29, (±)-3-(Quinolin-3-yl)-3-(3-(3-(5,6,7,8-tetrahydro-1,8-naphthyridin-2-yl)propyl)-1H-pyrazol-1-yl)propanoic acid], for which the IC50 came out at 1.7 nM at human αVβ3; 2900 nM at human αVβ8; 6.5 nM on human αVβ5; 11.2 nM at human αVβ6; 286 nM on human αVβ1.

For the molecule `O=C(O)CC(c1ccc2c(c1)CCO2)n1ccc(CCCc2ccc3c(n2)NCCC3)n1` (racemic) [Example 30, (±)-3-(2,3-Dihydrobenzofuran-5-yl)-3-(3-(3-(5,6,7,8-tetrahydro-1,8-naphthyridin-2-yl)propyl)-1H-pyrazol-1-yl)propanoic acid], the IC50 is 11 nM at human αVβ3; 2010 nM on human αVβ8; 230 nM at human αVβ5; 5.7 nM on human αVβ6; 100 nM at human αVβ1.
